Measured values published in patent publication US9873702B2, “Heterocyclic compounds as biogenic amine transport modulators” (Southern Research Institute, priority 2014, dated 2018).
Like-named read-outs stand apart in the source and are kept apart here.

Legend:
[1] = molecular target: dopamine transporter (DAT) (Rattus norvegicus, UniProt P23977); test: Dopamine reuptake ([^3H]dopamine uptake) inhibition in rat brain synaptosomes; conditions: for Emax: read-out: DA Uptake Emax (% I ± SD)
Procedure: Freshly removed caudate was homogenized in 10% ice-cold sucrose with 12 strokes of a hand-held Potter-Elvehj em homogenizer followed by centrifugation at 1000×g for 10 min. The supernatants were saved on ice and used immediately. Transporter activity was assessed using 5 nM [^3H]dopamine. […] The selectivity of the uptake assay for dopamine active transporter (DAT) was optimized by including 100 nM citalopram and 100 nM desipramine as blockers of serotonin transporter (SERT) and norepinephrine transporter (NET) in the sucrose solution and assay buffer. Uptake inhibition assays were conducted at 25° C. and were initiated by adding 100 μl of tissue to 900 μL assay buffer containing test drug and [^3H]dopamine. Test drugs were diluted in assay buffer containing 1 mg/mL bovine serum albumin. Nonspecific uptake was measured by incubating in the presence of 10 μM indatraline. The reactions were stopped after 15 minutes by rapid vacuum filtration with a cell harvester (BRANDEL) over GF/B filters (Whatman) presoaked in wash buffer maintained at 25° C. (10 mM Tris-HCl, pH 7.4/150 mM NaCl). Filters were rinsed with 6 mL wash buffer and retained tritium was quantified by a MicroBeta liquid scintillation counter (PerkinElmer) after overnight extraction in 0.6 mL of liquid scintillation cocktail (Cytoscint, ICN). The data from three experiments were pooled and fit to a dose-response curve equation (using Kaleidagraph), to yield an Emax and EC50 value.
The data from three experiments were pooled and fit to a dose-response curve equation (using KaleidaGraph; Synergy Software, Reading, Pa.) to yield an Emax and IC50 value.

[2] = DA Uptake EC50 (nM ± SD), rat caudate synaptosomes, 5 nM [^3H]dopamine, 15 min, 25° C., three experiments pooled

Chain of dopamine transporter (DAT) (P23977 whole entry): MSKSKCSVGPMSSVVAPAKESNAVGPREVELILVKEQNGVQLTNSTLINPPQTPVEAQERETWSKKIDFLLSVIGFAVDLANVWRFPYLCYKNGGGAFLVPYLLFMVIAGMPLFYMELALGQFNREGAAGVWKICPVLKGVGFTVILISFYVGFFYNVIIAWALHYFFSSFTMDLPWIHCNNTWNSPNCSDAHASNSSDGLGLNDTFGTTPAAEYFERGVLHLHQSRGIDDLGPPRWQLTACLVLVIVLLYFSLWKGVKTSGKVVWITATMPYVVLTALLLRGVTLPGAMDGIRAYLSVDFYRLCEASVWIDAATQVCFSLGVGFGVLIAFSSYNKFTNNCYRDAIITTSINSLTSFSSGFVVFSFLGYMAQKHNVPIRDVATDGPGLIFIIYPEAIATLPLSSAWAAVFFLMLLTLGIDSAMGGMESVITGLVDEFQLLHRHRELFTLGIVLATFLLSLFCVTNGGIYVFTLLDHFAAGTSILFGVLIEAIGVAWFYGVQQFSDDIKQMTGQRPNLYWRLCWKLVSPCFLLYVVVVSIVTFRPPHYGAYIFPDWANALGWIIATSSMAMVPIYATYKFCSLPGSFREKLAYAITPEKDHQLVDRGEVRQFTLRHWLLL

SMILES	melting point [°C]	IC50 [1, 2] [nM]	Emax [1] [%]	IC50 [1] [nM]
c1ccc(C(CNc2nc(-c3ccc4[nH]cnc4c3)nc3ccccc23)c2ccccc2)cc1 [compound 85, 2-(1H-Benzo [D]Imidazol-5-yl)-N-(2,2-Diphenylethyl)Quinazolin-4-Amine]	142	> 5000	–	–
c1ccc(C2CN(c3nc(-c4cnc5nccn5c4)nc4ccccc34)Cc3ccccc32)cc1 (centres unmarked) [compound 143, 2-(Imidazo[1,2-A]Pyrimidin-6-yl)-4-(4-Phenyl-3,4-Dihydroisoquinolin-2(1H)-yl)Quinazoline]	104 to 106	502 ± 84	73 ± 3	–
CN(C)c1ccc(-c2nc(NCCC(c3ccccc3)c3ccccc3)c3ccccc3n2)cn1 [compound 93, 2-(6-(Dimethylamino)Pyridin-3-yl)-N-(3,3-Diphenylpropyl)Quinazolin-4-Amine]	195	29 ± 4	76 ± 2	–
c1ccc(C(CCNc2nc(N3CCCCC3)nc3ccccc23)c2ccccc2)cc1 [compound 9, N-(3,3-Diphenylpropyl)-2-(piperidin-1-yl)quinazolin-4-amine]	160 to 164	140	100	–
Cc1cc2nccn2cc1-c1nc(NCC(c2ccncc2)c2ccncc2)c2ccccc2n1 [compound 157, N-(2,2-Di(Pyridin-4-yl)Ethyl)-2-(7-Methylimidazo[1,2-A]Pyridin-6-yl)Quinazolin-4-Amine]	170 to 175	15 ± 3	74 ± 2	–
c1ccc(C(CNc2nc(-c3ccc4[nH]ccc4c3)nc3ccccc23)c2cccnc2)cc1 (centres unmarked) [compound 130, 2-(1H-Indol-5-yl)-N-(2-Phenyl-2-(Pyridin-3-yl)Ethyl)Quinazolin-4-Amine]	109 to 111	40 ± 5	74 ± 2	–
c1ccc(C(Nc2nc(-c3cncnc3)nc3ccccc23)c2ccccc2)cc1 [compound 14, N-Benzhydryl-2-(pyrimidin-5-yl)quinazolin-4-amine]	210	234 ± 36	74 ± 2	–
Cn1ncc2cc(-c3nc(NCC(c4ccccc4)c4ccccc4)c4ccccc4n3)ccc21 [compound 67, N-(2,2-Diphenylethyl)-2-(1-Methyl-1H-Indazol-5-yl)Quinazolin-4-Amine]	200	43 ± 9	66 ± 2	–
Cl.c1ccc(C(CNc2nc(-c3ccc4nccn4c3)nc3cc(OCCCN4CCOCC4)ccc23)c2ccccc2)cc1 [compound 125, N-(2,2-Diphenylethyl)-2-(Imidazo[1,2-A]Pyridin-6-yl)-7-(3-Morpholinopropoxy)Quinazolin-4-Amine Hydrochloride]	232	–	52 ± 3	75 ± 25
c1ccc(C(CCNc2nc(-c3ccc4nccn4c3)nc3ccccc23)c2ccccc2)cc1 [compound 87, N-(3,3-Diphenylpropyl)-2-(Imidazo[1,2-A]Pyridin-6-yl)Quinazolin-4-Amine]	237	78 ± 9	75 ± 1	–
c1ccc(CCNc2nc(N3CCc4[nH]ccc4C3)nc3ccccc23)cc1 [compound 202, 2-(6,7-Dihydro-1H-Pyrrolo[3,2-c]Pyridin-5(4H)-yl)-N-Phenethylquinazolin-4-Amine]	161 to 163	94 ± 18	100 ± 3	–
CS(=O)(=O)Nc1ncc(-c2nc(NCC(c3ccccc3)c3ccccc3)c3ccccc3n2)cn1 [compound 139, N-(5-(4-((2,2-Diphenylethyl)Amino)Quinazolin-2-yl)Pyrimidin-2-yl)Methanesulfonamide]	214	205 ± 32	67 ± 2	–
c1ccc(CC(CNc2nc(-c3ccc4nccn4c3)nc3ccccc23)c2ccccc2)cc1 (centres unmarked) [compound 136, N-(2,3-Diphenylpropyl)-2-(imidazo[1,2-a]pyridin-6-yl)quinazolin-4-amine]	208 to 210	34 ± 4	78 ± 2	–
CC(C)C(CNc1nc(N2CCc3[nH]ccc3C2)nc2ccccc12)c1ccccc1 (centres unmarked) [compound 201, 2-(6,7-Dihydro-1H-Pyrrolo[3,2-c]Pyridin-5(4H)-yl)-N-(3-Methyl-2-Phenylbutyl)Quinazolin-4-Amine]	221 to 223	7.2 ± 2.6	88 ± 5	–
c1ccc(C(CNc2nc(-c3ccc4[nH]ccc4c3)nc3ccccc23)c2cccc(-c3ccc4[nH]ccc4c3)n2)cc1 (centres unmarked) [compound 58, N-(2-(6-(1H-Indol-5-yl)Pyridin-2-yl)-2-Phenylethyl)-2-(1H-Indol-5-yl)Quinazolin-4-Amine]	151	478 ± 154	65 ± 5	–
CC(CNc1nc(-c2ccc3nccn3c2)nc2ccccc12)(c1ccccc1)c1ccccc1 [compound 164, N-(2,2-Diphenylpropyl)-2-(Imidazo[1,2-A]Pyridin-6-yl)Quinazolin-4-Amine]	107 to 109	6.4 ± 1.6	76 ± 3	–

SMILES	melting point [°C]	IC50 [1, 2] [nM]	Emax [1] [%]	IC50 [1] [nM]
CS(=O)(=O)Nc1ccc(-c2nc(NCC(c3ccccc3)c3ccccc3)c3ccccc3n2)cn1 [compound 138, N-(5-(4-((2,2-Diphenylethyl)Amino)Quinazolin-2-yl)Pyridin-2-yl)Methanesulfonamide]	210	26 ± 3	63 ± 1	–
Cc1cc2nccn2cc1-c1nc(NC(CCc2ccccc2)c2ccccc2)c2ccccc2n1 (centres unmarked) [compound 167, N-(1,3-Diphenylpropyl)-2-(7-Methylimidazo[1,2-A]Pyridin-6-yl)Quinazolin-4-Amine]	119 to 120	9.4 ± 2.3	76 ± 3	–
Cc1cc2nccn2cc1-c1nc(NCC(c2ccncc2)c2ccc[nH]2)c2ccccc2n1 (centres unmarked) [compound 185, 2-(7-Methylimidazo[1,2-A]Pyridin-6-yl)-N-(2-(Pyridin-4-yl)-2-(1H-Pyrrol-2-yl)Ethyl)Quinazolin-4-Amine]	214 to 216	11 ± 2	71 ± 2	–
Cn1ccc2cc(-c3nc(NCC(c4ccccc4)c4ccccc4)c4ccccc4n3)ccc21 [compound 77, N-(2,2-Diphenylethyl)-2-(1-Methyl-1H-Indol-5-yl)Quinazolin-4-Amine]	222	28 ± 5	69 ± 2	–
Nc1ncc(-c2nc(NCC(c3ccccc3)C3CCCCC3)c3ccccc3n2)cn1 (centres unmarked) [compound 101, 2-(2-Aminopyrimidin-5-yl)-N-(2-Cyclohexyl-2-Phenylethyl)Quinazolin-4-Amine]	105	79 ± 19	75 ± 3	–
CC(C)(C)OC(=O)N1CCCc2ccc(-c3nc(NCC(c4ccccc4)c4ccccc4)c4ccccc4n3)cc21 [compound 71, Tert-Butyl 7-(4-((2,2-Diphenylethyl)Amino)Quinazolin-2-yl)-3,4-Dihydroquinoline-1(2H)-Carboxylate]	89	890	< 100	–
Cc1nc(C)c(-c2nc(NCC(c3ccccc3)c3ccccc3)c3ccccc3n2)s1 [compound 54, 2-(2,4-Dimethylthiazol-5-yl)-N-(2,2-Diphenylethyl)Quinazolin-4-Amine]	78	72 ± 12	80 ± 2	–
Cc1cc2nccn2cc1-c1nc(NCC(Cc2ccccc2)Cc2ccccc2)c2ccccc2n1 [compound 182, N-(2-Benzyl-3-Phenylpropyl)-2-(7-Methylimidazo[1,2-A]Pyridin-6-yl)Quinazolin-4-Amine]	181 to 184	8.3 ± 0.9	75 ± 1	–
c1ccc(C(CNc2nc(-n3cccn3)nc3ccccc23)c2ccccc2)cc1 [compound 51, N-(2,2-Diphenylethyl)-2-(1H-Pyrazol-1-yl)Quinazolin-4-Amine]	191	510	< 100	–
c1ccc(C(CNc2nc(-n3cncn3)nc3ccccc23)c2ccccc2)cc1 [compound 52, N-(2,2-Diphenylethyl)-2-(1H-1,2,4-Triazol-1-yl)Quinazolin-4-Amine]	216	680	100	–
COc1cc2nc(-c3ccc4[nH]ccc4c3)nc(NCC(c3ccccc3)c3ccccc3)c2cc1OC [compound 24, N-(2,2-Diphenylethyl)-2-(1H-indol-5-yl)-6,7-Dimethoxyquinazolin-4-Amine]	117	46	100	–
Cc1cc2nccn2cc1-c1nc(NCCc2ccncc2)c2ccccc2n1 [compound 181, 2-(7-Methylimidazo[1,2-A]Pyridin-6-yl)-N-(2-(Pyridin-4-yl)Ethyl)Quinazolin-4-Amine]	234 to 236	85 ± 5	72 ± 1	–
COc1cc2nc(-c3cccs3)nc(NCC(c3ccccc3)c3ccccc3)c2cc1OC [compound 26, N-(2,2-Diphenylethyl)-6,7-Dimethoxy-2-(Thiophen-2-yl)Quinazolin-4-Amine]	94	560	100	–
c1ccc(C(CNc2nc(-c3ccc4nncn4c3)nc3ccccc23)c2ccccc2)cc1 [compound 114, 2-([1,2,4]Triazolo[4,3-A]Pyridin-6-yl)-N-(2,2-Diphenylethyl)Quinazolin-4-amine]	224	67 ± 7	68 ± 1	–
CN(C)Cc1c[nH]c2ccc(-c3nc(NCC(c4ccccc4)c4ccccc4)c4ccccc4n3)cc12 [compound 111, 2-(3-((Dimethylamino)methyl)-1H-Indol-5-yl)-N-(2,2-Diphenylethyl)Quinazolin-4-Amine]	182	381 ± 42	101 ± 2	–
c1ccc(C(CNc2nc(N3CCc4[nH]c5ccccc5c4C3)nc3ccccc23)c2ccccc2)cc1 [compound 191, 2-(3,4-Dihydro-1H-Pyrido[4,3-B]Indol-2(5H)-yl)-N-(2,2-Diphenylethyl)Quinazolin-4-Amine]	258 to 260	16 ± 3	78 ± 2	–
